Entries after “also recorded” stand apart in the source; their conditions may differ.
What was measured:
[1] = test system: A2Cs and lungs of WT mice with CLP injury; test: Cecal ligation puncture (CLP) sepsis-induced ALI in WT mice; type: in vivo, mouse
Protocol: This model was described in detail in publication of the present inventor and colleagues, Gao, R et al., Am. J. Physiol. Mol. Physiol, 2015, 308:L847-L853.
WT mice were injected IP with vehicle, 1.5 mg/kg of CSP or control peptide (CP) 24 h after CLP injury. Sham-operated mice served as controls. Total RNA isolated from the lungs of these mice 72 h after CLP was quantitated for IL-17A mRNA by real-time PCR.
A2Cs were isolated from the lungs of these mice 72 h after CLP, and immunoblotted to assess changes in PAI-1, p53 and caspase-3 activation. All were increased by 72 h during CLP injury.
Mice were injected IP with CSP or control peptide (CP) 24 h after CLP injury. A2Cs isolated from these mice 72 h after CLP injury were immunoblotted for caveolin-1 and β-actin. Lysates of A2Cs from WT mice exposed to the above conditions were immunoprecipitated (IP) for PP2A-C and immunoblotted (IB) for caveolin-1 (Cav1) to assess their interaction.
Mice treated with or without CSP or CP 24 h after CLP injury were euthanized 72 h later and. lung tissues subjected to H&E staining to assess changes in lung inflammation. Lung homogenates and BAL fluids were analyzed for myeloperoxidase (MPO) to access PMN accumulation.
Mice were IP injected with CSP, CP or vehicle 24 h after CLP injury. Total RNA isolated from A2Cs of WT mice with or without CLP, CLP+CSP or CLP+CP 72 h after CLP induced ALI was reverse transcribed and subjected to real time PCR.
A2Cs isolated from mice with CLP, CLP+CSP or CLP+CP were immunoblotted for SP-C, thyroid transcription factor-1 (TTF-1) and β-actin. TTF-1 controls transcription of SP-C.
A2Cs isolated from mice 72 h after IP injection with CSP or CP alone without CLP injury and the lysates were immunoblotted for changes in SP-C expression. Lysates of A2Cs from uninjured (sham-operated) or CLP mice were also used for comparison.

[2] = test system: AECs from human nL exposed to CSE; test: Normal lung AECs exposed to TS/CS extract in vitro for 48 h; type: cell-based
Protocol: Primary Airway Epithelial Cells (AECs); Normal, Human (ATCC® PCS-301-010™) and Primary Airway Epithelial Cells; COPD (ATCC® PCS-301-013™) were obtained from the ATCC and cultured in Airway Cell Basal Medium with glutamine, Extract P, HLL Supplement, and AEC Supplement. containing and 1% penicillin-streptomycin. The cells were maintained at 37° C. in a humidified atmosphere at 5% CO2. All media, supplements, and antibiotics were purchased from ATCC.
Research cigarettes 2R4F were purchased from the Tobacco Health Research University of Kentucky (Lexington, KY). TSE extracts were prepared by burning research cigarettes in a side arm flask and the smoke generated was bubbled into phosphate-buffered saline at room temperature through an attached peristaltic pump as described earlier (Bhandary et al PloS One 10: e0123187, 2015) Tiwari et al. Am J Physiol Lung Cell Mol Physiol. 310:L496-506, 2016. An absorbance of 1.0 at 230 nm is considered 100%. TSE extract was filter sterilized by passing it through a 0.2-μm filter.
Preparation of CSE for the treatment of AECs in vitro. Research cigarettes 2R4F were purchased from the Tobacco Health Research, University of Kentucky (Lexington, KY). CSE were prepared by burning research cigarettes in a sidearm flask and the smoke generated was bubbled into phosphate-buffered saline (PBS) at room temperature through an attached peristaltic pump as described earlier (Shetty et al, 2012). An absorbance of 1.0 at 230 nm is considered 100%. CSE was filter sterilized by passing it through a 0.2-μm filter.
CSP7 inhibits MH and cilia dysfunction in AECs exposed to CS extract (CSE). To further confirm the above findings, AECs isolated from human nL were exposed to CSE in vitro for 48 h and analyzed for MUC5AC, HDAC6, FOXA2, FOXA3, SPDEF, acetylated alpha-tubulin, p53, PAI-1 and LC3. […] The changes at protein level allied with corresponding changes at the mRNA levels (FIG. 36B). […] CSE induced co-localization of MUC5AC and HDAC6, and acetylated alpha-tubulin and LC3 were inhibited following treatment with CSP7.

[3] = test system: AECs from nL overexpressing CAV1, p53 or PAI-1; test: AECs transduced with Ad-CAV1, Ad-p53 or Ad-PAI-1; type: cell-based, human
Protocol: Expression of CAV1, p53, or PAI-1 in AECs. AECs isolated from nL were separately transduced with Ad-CAV1 or Ad-p53 or Ad-PAI-1. AECs transduced with Ad-Ev were used as controls. In a separate experiment, AECs from nL in culture dishes were treated with Lv-p53 or Lv-PAI-1 shRNA to suppress its baseline expression before treating these cells with CSE. Naive AECs and AECs exposed to non-specific control shRNA was used as controls.

Row | Substance | IL-17A in lung tissues ([1]; 1.5 mg/kg IP 24 h after CLP, 72 h) | miR-34a expression in A2Cs (real time PCR, normalized to U6) ([1]; 72 h after CLP) | A2C apoptosis, p53 and PAI-1 expression ([1]; IP 24 h after CLP, 72 h) | A2C caveolin-1 interaction with PP2A-C (IP/IB) ([1]; IP 24 h after CLP, 72 h) | accumulation of PMN (MPO, H&E) ([1]; IP 24 h after CLP, 72 h) | SP-C expression by A2Cs ([1]; normal lungs, without CLP injury, 72 h after IP) | SP-C expression by A2Cs ([1]; sepsis-induced ALI) | inhibition of miR-34a in A2Cs ([1]; vs CLP or CLP+CP, 3 days after injury) [fold] | acetylated alpha-tubulin (immunofluorescence) ([2]; AECs + CSE) | TS-induced MUC5A gene expression ([2]; bronchial epithelial cells) | Caveolin1 expression ([2]; nL AECs + TSE) | MUC5AC, HDAC6, FOXA3, SPDEF and FOXA2 mRNA (qPCR) ([2]; nL AECs + TSE) | autophagy protein markers (Western blot) ([2]; nL AECs + TSE) | cilia length and number of ciliated cells ([2]; nL AECs + TSE/CSE) | co-localization of MUC5AC/HDAC6 and Ac-Tubulin/LC3 ([2]; nL AECs + TSE/CSE) | MUC5AC, HDAC6, FOXA3, SPDEF, CAV1, p53, PAI-1, LC3, FOXA2, Ac-Tub proteins (Western blot) ([2]; nL AECs + TSE/CSE 48 h) | MUC5AC, HDAC6, FOXA3, LC3, FOXA2, acetylated alpha-tubulin; mucus hypersecretion and cilia disassembly ([3]; Ad-CAV1 transduced AECs) | p53 and PAI-1 expression ([3]; Ad-CAV1 transduced AECs) | MUC5AC, HDAC6, FOXA3, p53, LC3, acetylated alpha-tubulin ([3]; Ad-PAI-1 transduced AECs) | MUC5AC, acetylated alpha-tubulin, FOXA2, CAV1, p53, PAI-1 ([3]; Ad-p53 transduced AECs)
1 | DGIWKASFTTFTVTKYWFYR (listed as Homo sapiens) [CSP, 20 residue caveolin-1 scaffolding domain peptide] | suppressed sepsis induced IL-17A | significantly reduced | concurrent inhibition of A2C apoptosis and p53 and PAI-1 expression | inhibited the A2C caveolin-1 interaction with PP2A-C | significantly inhibited accumulation of PMN | induced SP-C expression | induction of SP-C expression | 7 | – | – | – | – | – | – | – | – | – | – | – | –
2 | FTTFTVT (listed as Homo sapiens) [CSP7, heptapeptide fragment of the caveolin-1 scaffolding domain peptide CSP] | – | – | – | – | – | – | – | – | improved; also recorded: reversed with CSP7 treatment | inhibited TS-induced MUC5A gene expression | reversed by CSP7 | reversed by CSP7 treatment | reversed by CSP7 | significantly improved; also recorded: significantly reversed | reversal of the co-localization; also recorded: inhibited | reversed with CSP7 treatment | can mitigate the mucus hypersecretion and cilia disassembly; also recorded: reduced CAV1-induced MUC5AC, HDAC6, FOXA3, and LC3 while restoring FOXA2 and acetylated alpha-tubulin | reduced the expression of p53 and PAI-1 | reversed | reduced MUC5AC and restored acetylated alpha-tubulin and FOXA2, while inhibiting CAV1, p53, and PAI-1
3 | WGIDKAFFTTSTVTYKWFRY [CP, scrambled control peptide with the same amino acid composition as CSP, reference compound] | – | – | – | – | – | – | – | – | – | – | – | – | – | failed to respond | – | – | – | – | – | –
